Laboratory results as given in patent publication US5334728A (The Trustees of The University of Pennsylvania, priority 1992, dated 1994).
Where “and” joins values, the source holds several entries; their conditions need not be identical. Equal entries are not always repeated.

Legend:
[1] = target: T1, dopamine D-2 receptor (Rattus norvegicus, UniProt P61169); assay: Saturation binding of [^125 I]IBF to rat striatal homogenate in vitro
T1 construct: Striatal tissues were excised, pooled and homogenized in 100 volumes (w/v) of ice-cold Tris-HCl buffer; from tissue; host or cells: rat striatum (male Sprague-Dawley), twice-centrifuged membrane homogenate
T1 sequence (P61169 whole entry): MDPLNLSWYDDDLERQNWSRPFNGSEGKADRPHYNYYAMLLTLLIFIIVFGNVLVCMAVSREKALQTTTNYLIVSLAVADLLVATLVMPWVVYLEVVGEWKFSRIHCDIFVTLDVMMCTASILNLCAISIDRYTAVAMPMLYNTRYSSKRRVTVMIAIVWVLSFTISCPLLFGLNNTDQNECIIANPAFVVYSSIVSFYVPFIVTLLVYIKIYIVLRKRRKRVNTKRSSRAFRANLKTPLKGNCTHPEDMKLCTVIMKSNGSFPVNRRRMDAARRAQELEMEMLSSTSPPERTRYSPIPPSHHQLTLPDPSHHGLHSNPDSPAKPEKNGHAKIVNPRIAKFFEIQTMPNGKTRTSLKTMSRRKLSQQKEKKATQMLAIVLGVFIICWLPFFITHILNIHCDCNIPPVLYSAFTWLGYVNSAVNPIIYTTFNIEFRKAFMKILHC
Experimental: (§1) Male Sprague-Dawley rats (200-250 g) were decapitated, and the brains were removed and placed in ice. Striatal tissues were excised, pooled and homogenized in 100 volumes (w/v) of ice-cold Tris-HCl buffer (50 mM), pH 7.4. The homogenates were centrifuged at 20,000× g for 20 min. The resultant pellets were rehomogenized in the same buffer and centrifuged again. The final pellets were resuspended in assay buffer containing: 50 mM Tris buffer pH 7.4, 120 mM NaCl, 5 mM KCl, 2 mM CaCl2 and 1 mM MgCl2 and kept at -20° C. for the following binding assay.
(§2) The binding assays were performed by incubating 50 μl of tissue preparations containing 40-60 μg of protein with appropriate amounts of l-125 labeled ligand and competitors in a total volume of 0.2 ml of the assay buffer. After an incubation period of 15 min at 37° C. (with stirring), the samples were rapidly filtered in the cell harvester (Brandel M-24R) under vacuum through Whatman GF/B glass fiber filters pretreated with 0.2% protamine base and washed with 3×5 ml of cold (4° C.) 50 mM Tris-HCl buffer, pH 7.4. […] The filters were counted in a gamma counter (Beckman 5500) at an efficiency of 70%.

[2] = target: T1, dopamine D-2 receptor; assay: Competition binding using [^125 I]IBF, rat striatal membranes
Experimental: *0.15-0.30 nM [^125 I]IBF was incubated in the presence of the
indicated compounds in 7-11 concentrations and of membrane preparation
from rat striatum. Each value represents the mean ± SEM of three to
as §1, §2

[3] = system: CNS D-2 dopamine receptors; assay: Regional brain distribution in rats after iv injection; assay type: in vivo; conditions: rat; for striatum/cerebellum (ST/CB) ratio: % dose/gram ratio
Description: FIG. 2 is a bar graph showing ratios (based on % dose/gram) of regional cerebral uptake of [^125 I]IBF (CX: cortex, ST: striatum, CB: cerebellum, HP: hippocampus).
(§3) (See FIG. 2). This type of profound increase in target to nontarget ratio versus time was not observed for the other two regions (hippocampus and cortex) (FIG. 2). […] The data have been further confirmed by an in vivo imaging study of a monkey.
Regional brain distribution in rats was obtained after an iv injection of [^125 l]IBF, 21. By dissecting, weighing and counting samples from different brain regions (cortex, striatum, hippocampus and cerebellum), % dose/gram of samples was calculated by comparing the sample counts with the counts of the diluted initial dose. The uptake ratio of each region was obtained by dividing % dose/gram of each region with that ot the cerebellum.

[4] = system: CNS D-2 dopamine receptors; assay: Ex vivo autoradiography (preliminary); assay type: in vivo; conditions: preliminary study
Description: as §3

[5] = Biodistribution in rats after IV injection; assay type: in vivo, rat
Experimental: Male Sprague Dawley rats (225-300 g), which were allowed free access to food and water, were used for in vivo biodistribution study. While under halothane anesthesia, 0.2 ml of a saline solution containing [^125 l]IBF, 21, (8-10 μCi) was injected directly into the femoral vein, and the rats were sacrificed at various time points postinjection by cardiac excision under halothane anesthesia. The organs of interest were removed, weighed and the radioactivity was counted using a Beckman gamma automatic counter (Model 4000). The percent dose per organ was calculated by a comparison of the tissue counts to suitably diluted aliquots of the injected material. Total activities of blood and muscle were calculated assuming that they are 7% and 40% of total body weight, respectively.

[6] = system: CNS D-2 dopamine receptors; assay: In vivo planar imaging of a monkey; conditions: planar images
Description: as §3

[7] = 2 min, IV, average of 3 rats ± SD
[8] = 15 min, IV, average of 3 rats ± SD
[9] = 30 min, IV, average of 3 rats ± SD
[10] = 60 min, IV, average of 3 rats ± SD
[11] = 120 min, IV, average of 3 rats ± SD

specific binding saturability [1]: saturable
Kd ([1]; rat striatal homogenate in vitro, read-out: Kd, specific binding): 0.106 ± 0.015 nM
nonspecific binding ([1]; saturation curve, FIG. 1): extremely low nonspecific binding
nonspecific binding at Kd ([1]; saturation curve, FIG. 1): 5%
striatum/cerebellum (ST/CB) ratio ([3]; 2 min): 2.0
striatum/cerebellum (ST/CB) ratio ([3]; 15 min): 3.8
striatum/cerebellum (ST/CB) ratio ([3]; 30 min): 6.2
striatum/cerebellum (ST/CB) ratio ([3]; 60 min): 18
striatum/cerebellum (ST/CB) ratio ([3]; 120 min): 48
increase in target to nontarget ratio versus time, hippocampus and cortex ([3]; hippocampus and cortex): not observed
retention in the striatum [3]: prolonged retention
Blood uptake [5, 7]: 3.50 ± 0.22 % Dose/Organ
Brain/Blood ratio [5, 7]: 2.64 ± 0.32 % dose/gram ratio
Heart uptake [5, 7]: 0.81 ± 0.25 % Dose/Organ
Kidney uptake [5, 7]: 7.58 ± 0.66 % Dose/Organ
Liver uptake [5, 7]: 16.32 ± 4.00 % Dose/Organ
Muscle uptake [5, 7]: 11.25 ± 2.62 % Dose/Organ
Skin uptake [5, 7]: 8.54 ± 1.21 % Dose/Organ
Spleen uptake [5, 7]: 0.96 ± 0.08 % Dose/Organ
Thyroid uptake [5, 7]: 0.06 ± 0.02 % Dose/Organ
Blood uptake [5, 8]: 1.80 ± 0.31 % Dose/Organ
Brain uptake [5, 8]: 0.54 ± 0.06 % Dose/Organ
Brain/Blood ratio [5, 8]: 3.01 ± 0.91 % dose/gram ratio
Heart uptake [5, 8]: 0.20 ± 0.03 % Dose/Organ
Kidney uptake [5, 8]: 2.92 ± 0.30 % Dose/Organ
Liver uptake [5, 8]: 16.16 ± 7.54 % Dose/Organ
Lung uptake [5, 8]: 1.85 ± 0.33 % Dose/Organ
Muscle uptake [5, 8]: 14.36 ± 1.29 % Dose/Organ
Skin uptake [5, 8]: 8.46 ± 0.56 % Dose/Organ
Spleen uptake [5, 8]: 0.58 ± 0.08 % Dose/Organ
Thyroid uptake [5, 8]: 0.03 ± 0.004 % Dose/Organ
Blood uptake [5, 9]: 1.26 ± 0.10 % Dose/Organ
Brain uptake [5, 9]: 0.30 ± 0.05 % Dose/Organ
Brain/Blood ratio [5, 9]: 2.26 ± 0.33 % dose/gram ratio
Heart uptake [5, 9]: 0.11 ± 0.01 % Dose/Organ
Kidney uptake [5, 9]: 1.58 ± 0.46 % Dose/Organ
Liver uptake [5, 9]: 11.59 ± 0.93 % Dose/Organ
Muscle uptake [5, 9]: 9.00 ± 1.66 % Dose/Organ
Skin uptake [5, 9]: 5.34 ± 0.17 % Dose/Organ
Spleen uptake [5, 9]: 0.31 ± 0.03 % Dose/Organ
Thyroid uptake [5, 9]: 0.02 ± 0.004 % Dose/Organ
Blood uptake [5, 10]: 0.98 ± 0.11 % Dose/Organ
Brain/Blood ratio [5, 10]: 1.90 ± 0.29 % dose/gram ratio
Heart uptake [5, 10]: 0.05 ± 0.002 % Dose/Organ
Kidney uptake [5, 10]: 1.01 ± 0.01 % Dose/Organ
Liver uptake [5, 10]: 9.84 ± 1.50 % Dose/Organ
Lung uptake [5, 10]: 0.37 ± 0.10 % Dose/Organ
Muscle uptake [5, 10]: 4.97 ± 0.56 % Dose/Organ
Skin uptake [5, 10]: 2.38 ± 0.17 % Dose/Organ
Spleen uptake [5, 10]: 0.09 ± 0.01 % Dose/Organ
Blood uptake [5, 11]: 0.53 ± 0.02 % Dose/Organ
Brain uptake [5, 11]: 0.07 ± 0.006 % Dose/Organ
Brain/Blood ratio [5, 11]: 1.53 ± 0.12 % dose/gram ratio
Heart uptake [5, 11]: 0.02 ± 0.001 % Dose/Organ
Kidney uptake [5, 11]: 0.68 ± 0.32 % Dose/Organ
Liver uptake [5, 11]: 3.95 ± 0.31 % Dose/Organ
Muscle uptake [5, 11]: 2.30 ± 0.22 % Dose/Organ
Skin uptake [5, 11]: 1.18 ± 0.18 % Dose/Organ
Spleen uptake [5, 11]: 0.03 ± 0.007 % Dose/Organ
Thyroid uptake [5, 11]: 0.08 ± 0.03 % Dose/Organ
in vivo deiodination ([5]; from thyroid uptake at one hour postinjection): little or no in vivo deiodination
in vivo stability compared with [^125 I]IBZM ([5]; rat, in vivo): better in vivo stability
lung clearance ([5]; rats): rapidly cleared
Brain uptake ([5]; rats, intravenous): good brain uptake in rats
SMILES: CCN1CCC[C@H]1CNC(=O)c1cc([125I])cc2c1OCC2 [[^125 I]IBF]
selectivity of binding to the dopamine D-2 receptor [2]: binds specifically and selectively to the dopamine D-2 receptor
striatal uptake and cerebellar activity [4]: high striatal uptake and low cerebellar activity
Brain uptake [5, 7]: 0.98 ± 0.15 % Dose/Organ and 0.98 % Dose/Organ
Lung uptake [5, 7]: 6.14 ± 1.19 % Dose/Organ and 6.14 % Dose/Organ
Lung uptake [5, 9]: 0.82 ± 0.08 % Dose/Organ and 0.82 % Dose/Organ
Brain uptake [5, 10]: 0.17 ± 0.02 % Dose/Organ and 0.17 % Dose/Organ
Thyroid uptake [5, 10]: 0.02 ± 0.01 % Dose/Organ and 0.02 % Dose/Organ
Liver uptake ([5]; rats, first hour to two hours postinjection): remained high throughout the first hour and gradually declined at two hours postinjection
uptake and retention in the basal ganglia [6]: high uptake and retention in the basal ganglia
